Data reported in patent US20150133434A1, “Compositions and Methods for Reactivating Latent Immunodeficiency Virus” (priority 2012, published 2015).
Entries after “also recorded” stand apart in the source; their conditions may differ.

Experiments:
[1] = tested on: latent HIV (clone R7/E-/GFP) in Jurkat T cells; assay: Reactivation of latent HIV in polyclonal Jurkat T cells (clone R7/E-/GFP), flow cytometry of GFP; format: cell-based, HIV-1
Description: A polyclonal population of Jurkat T cells containing latent HIV (clone R7/E-/GFP) was treated with increasing amounts of JQ1. This viral clone contains a frameshift mutation in the viral Env gene to prevent viral spread and expresses GFP in the Nef open reading frame, which allows separation of actively infected GFP^+ from GFP^− cells by cell sorting. GFP^− cells, which are mostly uninfected but contain a small fraction of latently infected cells with silenced HIV transcription, were treated with JQ1. Activation of transcription was measured by flow cytometry of GFP. […] Stimulation of cells with JQ1 produced up to fivefold more GFP-expressing cells than control-treated cells.
HIV clones R7/E-/GFP and NL4-3/E-/GFP-IRES-nef were derived from pR7-GFP and pNLENG1-EGFP by mutating the Env gene by inserting an early stop codon in the NdeI site. […]. Jurkat cells were spininfected with 25 ng of p24 per 10^6 cells, and GFP^− cells where collected in two rounds of cell sorting 5 and 15 days after infection. The expanded population of GFP^− cells, composed of uninfected and latently infected cells, was seeded in 96-well plates and treated with the indicated concentration of drugs in duplicates. The percentage of GFP^+ cells was detected after 24 h at the MACSQuant VYB FACS analyzer. Data are expressed as the mean percentage of GFP^+ cells, subtracting the average percentage of spontaneous GFP-reactivation in the untreated samples. (A) Jurkat cells containing latent R7/E-/GFP virus were treated with JQ1 or (R)-JQ1 in combination with Prostratin (0.5 μM), SAHA (2.5 μM), TNFα (1 ng/μl), or control at the indicated concentrations for 18 h, followed by flow cytometry analysis. […] Results represent average of two independent experiments. All treatments in (A) and (B) on the X axis are in μM.

[2] = tested on: latent DHIV-GFP, X4 virus in nonpolarized T helper cells; assay: Primary T-cell model of latency, ex vivo differentiated nonpolarized CD4+ T cells; format: cell-based, HIV-1; details: 96 h after compound addition; minor effect only at highest doses
[3] = tested on: HIV LTR promoter driving destabilized GFP in Jurkat cells; assay: Single-cell time-lapse fluorescence microscopy of LTR-GFP Jurkat cells (two-state transcription model); format: cell-based
Description: Lentiviral vectors expressing the LTR-GFP cassette in the absence of Tat were used to infect 5×10^5 Jurkat cells at a multiplicity of infection <0.1, resulting in 25,000-50,000 infected cells each presumably with a unique integration site. Cells were then sorted by FACS to isolate green fluorescent protein-labeled (GFP^+) cells and fluorescently imaged on glass-bottom dishes in RPMI 1640 with 10% fetal calf serum and 1% penicillin-streptomycin and 1 μM JQ1 at t=0 h for the treated population. The imaging took place in humidified conditions at 37° C. and 5% CO2 for 12-24 hours with a 40× (1.2 NA) oil-immersion objective on a Zeiss Observer Z1 microscope equipped with an automated linear-encoded X-Y stage. Image processing and cell tracking were performed in Matlab™ with an in-house algorithm (Weinberger et al. Nature Genet 2008; 40:466-70) and a single 12-hour experiment could generate up to 1000 single-cell trajectories for analysis.
For each trajectory, noise autocorrelation (Φ(t)) and magnitude (CV2) were calculated using an established noise processing algorithm (Weinberger et al. Nature Genet 2008; 40:466-70; Austin D W et al., Nature 2006; 439:608-11) A published theory (Simpson M L, et al. J Theor Biol 2004; 229:383-94; Cox C D, et al. Proc Natl Acad Sci USA 2008; 105:10809-14) of the two-state transcriptional bursting model yields analytical expressions for the autocorrelation of the noise, Φ(τ), and noise magnitude. Derivations and calculated burst size and frequency have been reported (Singh A, et al. Biophysical Journal 2010; 98:L32-L4). Exogenous JQ1 addition can change either mean fluorescence, variability of expression (defined by the coefficient of variation, CV), or both. Modeling of 2-state transcription enables the differentiation between modulations in transcriptional initiation (Dkon) or in the burst size (DT/koff).
To biophysically characterize the Tat-independent JQ1 effect on the HIV LTR, single-cell time-lapse fluorescence microscopy was performed on ˜2,000 Jurkat cells where each cell carried a different integration site of the LTR promoter driving a destabilized GFP reporter (FIG. 24A). Mean fluorescence intensity (MFI) and the magnitude of intensity fluctuations (i.e. the ‘noise’) were quantified for sub-clusters of polyclonal cells in response to JQ1 treatment (FIG. 24). The data was analyzed using an established two-state model of episodic transcription in which the LTR switches between a transcriptional OFF state, where RNA polymerase II is stalled, and a transcriptional ON state where elongation occurs and multiple mRNA transcripts are produced at a rate=T (FIG. 24B). In this model, promoter switching occurs with rates kon and koff which generates pulses or bursts of transcription.
To determine how JQ1 influences these biophysical parameters (koff, kon, T), changes in LTR MFI and noise (measured by the coefficient of variation, CV, which is defined as the standard deviation over the mean) were examined and compared to the untreated LTR (FIG. 24C, D). By qualifying MFI and CV in time-lapse trajectories, changes in both burst frequency (kon) and burst size, or the # of mRNA produced per activity pulse, (T/koff) can be determined.

Compound: Cc1sc2c(c1C)C(c1ccc(Cl)cc1)=N[C@@H](CC(=O)OC(C)(C)C)c1nnc(C)n1-2 [JQ1, tert-Butyl 2-((6S)-4-(4-chlorophenyl)-2,3,9-trimethyl-6H-thieno[3,2-f][1,2,4]triazolo[4,3-a][1,4]diazepin-6-yl)acetate]
- GFP-expressing cells relative to control-treated cells ([1]; JQ1 alone): up to fivefold
- effect of adding JQ1 with SAHA ([1]; co-treatment with SAHA 2.5 μM, FIG. 20A, B (both viral clones)): no additive or synergistic effects
- effect of co-treatment with TNFα on the JQ1 effect ([1]; co-treatment with TNFα, FIG. 20A, B (both viral clones)): very modest enhancement
- effect of adding JQ1 with prostratin ([1]; co-treatment with prostratin 0.5 μM, FIG. 20A, B (both viral clones)): Enhanced activation
- reactivation of HIV-1 (GFP+ cells) ([1]; compound alone, increasing amounts): reactivated HIV-1 in a dose-dependent manner
- reversal of latency (GFP) [2]: minor activatory effect
- delay in transcriptional initiation ([3]; 1 μM JQ1, average): ~50 min
- increase of mRNAs per pulse of transcriptional activity ([3]; 1 μM JQ1, average): ~15 mRNAs per pulse
- LTR noise (coefficient of variation) ([3]; 1 μM JQ1 vs untreated): increases
- average dwell time in the OFF state (1/kon) ([3]; 1 μM JQ1 vs untreated): increases
- mean fluorescence intensity (MFI) ([3]; 1 μM JQ1 vs untreated): without a significant shift
- transcription burst size (T/koff) ([3]; 1 μM JQ1 vs untreated): enhancement; also recorded: increases
